# Results as given in PubChem BioAssay (NCI).
#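 Growth conditions: 96-well plates. Treatment: test compound, 48 hours, 5 concentrations. Analysis: linear interpolation between bracketing concentrations; unreached endpoints set to highest concentration. Definition used: TGI = concentration required for complete inhibition of growth.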
# Tests used:
# Assay in all cases: inhibition of tumour cell growth, NCI panel, 48 h
# [1] = tested on: MALME-3M melanoma
# [2] = tested on: MCF7 breast
# [3] = tested on: SW-620 colon
# [4] = tested on: NCI-H460 lung
# [5] = tested on: SK-MEL-2 melanoma
# [6] = tested on: LOX IMVI melanoma
# [7] = tested on: MOLT-4 leukemia
# [8] = tested on: CCRF-CEM leukemia
# [9] = tested on: HCC-2998 colon
# [10] = tested on: A549 NSCLC
# [11] = tested on: SN12C renal
# [12] = tested on: UO-31 renal
Structure (SMILES),TGI [1],TGI [2],TGI [3],TGI [4],TGI [5],TGI [6],TGI [7],TGI [8],TGI [9],TGI [10],TGI [11],TGI [12]
CO/C=C/C=C(\C#N)C(=O)OC,> 100 µM,> 100 µM,> 100 µM,> 100 µM,> 100 µM,> 100 µM,> 100 µM,> 100 µM,> 100 µM,> 100 µM,> 100 µM,> 100 µM
CCOC(=O)c1nc2cc(C(F)(F)F)ccc2nc1Oc1ccc(C#N)cc1,> 100 µM,> 100 µM,> 100 µM,> 100 µM,> 100 µM,> 100 µM,> 100 µM,> 100 µM,> 100 µM,> 100 µM,> 100 µM,> 100 µM
Cc1cc(S(=O)(=O)NC2=NCc3nc4ccccc4n32)c(S)cc1Cl,56.2 µM,70.1 µM,> 100 µM,82.4 µM,29.2 µM,35 µM,50.2 µM,86.6 µM,35.7 µM,83.2 µM,51 µM,63.6 µM
CCOC1CN=C(Nc2cccc3ccccc23)S1 (stereo not given),> 10 µM,> 10 µM,> 10 µM,> 10 µM,> 10 µM,> 10 µM,> 10 µM,> 10 µM,> 10 µM,> 10 µM,> 10 µM,
CCOC(=O)Cc1csc(NC(NC(=O)OCC)(C(=O)OCC)C(F)(F)F)n1 (stereo not given),> 100 µM,> 100 µM,> 100 µM,> 100 µM,> 100 µM,> 100 µM,> 100 µM,> 100 µM,> 100 µM,> 100 µM,> 100 µM,> 100 µM
C[C@H](C1CC(C)(O)C(C)(O)C(O)O1)[C@H]1CC[C@H]2[C@@H]3[C@@H]4O[C@@H]4[C@@]4(O)CC=CC(=O)[C@]4(C)[C@H]3CC[C@]12C (stereo not given in full),31.5 µM,> 50 µM,> 50 µM,> 50 µM,> 50 µM,> 50 µM,> 50 µM,> 50 µM,> 50 µM,> 50 µM,> 50 µM,> 50 µM
CC(C)CC(NC(=O)C(C)(CI)Cc1ccccc1)C(=O)Nc1ccccc1 (stereo not given),> 100 µM,> 100 µM,> 100 µM,> 100 µM,> 100 µM,> 100 µM,> 100 µM,> 100 µM,> 100 µM,> 100 µM,> 100 µM,> 100 µM
Cc1c(C)c2ccc(OCC(O)COC(C)C)c(C)c2oc1=O (stereo not given),30.3 µM,50.1 µM,93.1 µM,34.6 µM,36.8 µM,42.2 µM,> 10 µM,62.4 µM,43.4 µM,> 100 µM,,> 100 µM
COc1ccc(N=c2oc3ccccc3cc2C(N)=O)cc1,,87.7 µM,> 100 µM,> 100 µM,> 100 µM,> 100 µM,> 100 µM,> 100 µM,> 100 µM,> 100 µM,> 100 µM,14.8 µM
CCOC(=O)C(C(=O)OCC)=C1SC(=Nc2ccccc2)C(=Nc2ccccc2)N1c1ccccc1,> 100 µM,> 100 µM,,> 100 µM,> 100 µM,,> 100 µM,> 100 µM,> 100 µM,> 100 µM,> 100 µM,> 100 µM
OC1(C(Sc2cc(C(F)(F)F)cc(C(F)(F)F)c2)Sc2cc(C(F)(F)F)cc(C(F)(F)F)c2)C=CCCC1 (stereo not given),8.81 µM,4.58 µM,7.74 µM,3.55 µM,,5.9 µM,5.08 µM,6.39 µM,3.25 µM,6.1 µM,6.77 µM,3.66 µM
COC(=O)c1c([N+](=O)[O-])ncn1[C@H]1OC[C@@H](OC(C)=O)[C@@H](OC(C)=O)[C@@H]1OC(C)=O,> 100 µM,> 100 µM,> 100 µM,> 100 µM,,> 100 µM,> 100 µM,> 100 µM,> 100 µM,> 100 µM,> 100 µM,> 100 µM
CCCCN1C(=O)C2Cc3c([nH]c4ccccc34)C(c3cccc(O)c3)N2C1=O (stereo not given),,36.2 µM,38.7 µM,37.1 µM,32.9 µM,32.2 µM,69.6 µM,36.2 µM,34.2 µM,35 µM,32.5 µM,32.8 µM
COc1cc2c(cc1OC)OC(c1c(OC)ccc(OC)c1O)CC2 (stereo not given),> 100 µM,> 100 µM,> 100 µM,> 100 µM,> 100 µM,> 100 µM,> 100 µM,77.8 µM,> 100 µM,> 100 µM,,> 100 µM
N#Cc1ccc(C(O)C(F)(F)c2nc3ccccc3o2)cc1 (stereo not given),,> 100 µM,> 100 µM,> 100 µM,> 100 µM,> 100 µM,> 100 µM,> 100 µM,> 100 µM,,,> 100 µM
CC1=NN(c2cccc(Cl)c2)C2(SCC(=O)N2c2nc3ccccc3s2)C1=CC=Cc1ccccc1 (stereo not given),,> 100 µM,> 100 µM,> 100 µM,59.8 µM,> 100 µM,87.5 µM,> 100 µM,> 100 µM,,,> 100 µM
Cc1cc(S(=O)(=O)Nc2n[nH]c(-c3ccc(Cl)cc3)n2)c(SSc2cc(Cl)c(C)cc2S(=O)(=O)Nc2n[nH]c(-c3ccc(Cl)cc3)n2)cc1Cl,> 100 µM,> 100 µM,73.5 µM,62.4 µM,,64.3 µM,54.2 µM,60.6 µM,40.7 µM,> 100 µM,> 100 µM,81.9 µM
O=C1/C(=C\c2ccc(Cl)cc2)N=C(c2ccccc2)N1n1c(=O)cn[nH]c1=S,> 100 µM,35.4 µM,44.4 µM,> 100 µM,> 100 µM,65.3 µM,53.3 µM,15.7 µM,> 100 µM,> 100 µM,,> 100 µM
CCOC1OC(COC(=O)C(C)(C)C)C(O)CC1n1cc(C)c(=O)[nH]c1=O (stereo not given),> 100 µM,> 100 µM,> 100 µM,> 100 µM,> 100 µM,> 100 µM,,> 100 µM,> 100 µM,> 100 µM,> 100 µM,> 100 µM
